Structures can show the parent of a compound that is named as a salt.
Columns and labels:
Format in all cases: biochemical
[1] = target: T1, TrkB (Homo sapiens, UniProt Q16620); assay: Inhibition of kinase TrkB (Kinase-Glo); details: TrkB 4 μg/ml, 40 μM ATP, two hours at 30° C.
T1 construct: purchased Upstate 14-507
Protocol: Protein TrkB (Upstate 14-507; batch #25578U) is incubated at a concentration of 4 μg/ml in a buffer containing 8 mM of MOPS/NaOH pH7, 0.2 mM EDTA, 40 mM MgAc (Sigma #229768), 1 mM DTT (Fluka #43816), NaOV 1 mM, 25 mM 2-glycerolphosphate (Sigma #G9891), in the presence of 2.5 mg/ml of peptide substrate poly-EY (Upstate #P0275), and 40 μM of ATP.
The dilution buffer for TrkB is as follows: 20 mM MOPS/NaOH pH7, 1 mM EDTA, 5% glycerol, 0.01% Brij35, 0.1% 2-mercapto, 1 mg/ml BSA.
(§1) The compound to be tested is first added to the enzyme to give a reaction volume of 50 μl. The dilution of the compounds of the invention is distributed so as to obtain a scale of final concentrations between 10 nM and 30 μM.
(§2) After incubation of the reaction mixture for two hours at 30° C., the level of ATP that remains is assayed using the Kinase-Glo Luminescent Kinase Assay (Promega #V6712) according to the conditions recommended by the supplier. The luminescence induced is read in a plate reader (Envision-Perkin Elmer).

[2] = target: T2, PIM-1 (Homo sapiens, UniProt P11309); assay: Inhibition of kinase PIM-1 (Kinase-Glo); details: PIM-1 0.625 μg/ml, 10 μM ATP, forty minutes at 30° C.
T2 construct: purchased Upstate 14-573
Protocol: Protein PIM-1 (Upstate #14-573 batch 25864U) is incubated at a concentration of 0.625 μg/ml in a buffer containing 8 mM of MOPS/NaOH pH7, 0.2 mM EDTA, 5 mM MgAc (Sigma #229768), 0.01% Triton Tx100, in the presence of 70 μM of peptide substrate S6 Kinase/Rsk2 (Upstate #12-243), and 10 μM of ATP.
The dilution buffer for PIM-1 is as follows: 20 mM MOPS/NaOH pH7, 1 mM EDTA, 5% glycerol, 0.01% Brij35, 0.1% 2-mercapto, 1 mg/ml BSA
as §1
as §2, with “forty minutes” for “two hours”

[3] = target: T3, TrkA (Homo sapiens, UniProt P04629); assay: Inhibition of kinase TrkA (Kinase-Glo); details: TrkA 4 μg/ml, 30 μM ATP, two hours at 30° C.
T3 construct: purchased Upstate 14-571
Protocol: Protein TrkA (Upstate 14-571; batch #25634U) is incubated at a concentration of 4 μg/ml in a buffer containing 8 mM of MOPS/NaOH pH7, 0.2 mM EDTA, 40 mM MgAc (Sigma #229768), 1 mM DTT (Fluka #43816), NaOV 1 mM, 0.01% Triton Tx100, in the presence of 1 mg/ml of peptide substrate poly-EY (Upstate #P0275), and 30 μM of ATP.
The dilution buffer for TrkA is as follows: 20 mM MOPS/NaOH pH7, 1 mM EDTA, 5% glycerol, 0.01% Brij35, 0.1% 2-mercapto, 1 mg/ml BSA.
as §1, §2

[4] = target: T4, RET (Homo sapiens, UniProt P07949); assay: Inhibition of RET kinase activity, recombinant RET method (Kinase-Glo); details: RET 2 μg/ml, poly-EY4 substrate, 20 μM ATP, two hours at 30° C.
T4 construct: purchased Upstate 14-570MG
In short: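 Recombinant RET at 2 μg/ml in 20 mM MOPS/NaOH pH 7.0, 1 mM EDTA, 5% glycerol, 0.01% Brij35, 0.1% 2-mercaptoethanol, 1 mg/ml BSA; compounds 10 nM–30 μM final.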

[5] = target: ALK (Homo sapiens, UniProt Q9UM73); assay: Inhibition of kinase ALK (PLCγ1-GST substrate, anti-phosphotyrosine ELISA); details: ALK 180 ng/ml, 250 μM ATP, 30 minutes at 30° C.
Protocol: Incubation is carried out for 30 minutes at 30° C. with agitation.
The signal is read in luminescent mode using a luminometer.

T3 sequence (P04629 33-796): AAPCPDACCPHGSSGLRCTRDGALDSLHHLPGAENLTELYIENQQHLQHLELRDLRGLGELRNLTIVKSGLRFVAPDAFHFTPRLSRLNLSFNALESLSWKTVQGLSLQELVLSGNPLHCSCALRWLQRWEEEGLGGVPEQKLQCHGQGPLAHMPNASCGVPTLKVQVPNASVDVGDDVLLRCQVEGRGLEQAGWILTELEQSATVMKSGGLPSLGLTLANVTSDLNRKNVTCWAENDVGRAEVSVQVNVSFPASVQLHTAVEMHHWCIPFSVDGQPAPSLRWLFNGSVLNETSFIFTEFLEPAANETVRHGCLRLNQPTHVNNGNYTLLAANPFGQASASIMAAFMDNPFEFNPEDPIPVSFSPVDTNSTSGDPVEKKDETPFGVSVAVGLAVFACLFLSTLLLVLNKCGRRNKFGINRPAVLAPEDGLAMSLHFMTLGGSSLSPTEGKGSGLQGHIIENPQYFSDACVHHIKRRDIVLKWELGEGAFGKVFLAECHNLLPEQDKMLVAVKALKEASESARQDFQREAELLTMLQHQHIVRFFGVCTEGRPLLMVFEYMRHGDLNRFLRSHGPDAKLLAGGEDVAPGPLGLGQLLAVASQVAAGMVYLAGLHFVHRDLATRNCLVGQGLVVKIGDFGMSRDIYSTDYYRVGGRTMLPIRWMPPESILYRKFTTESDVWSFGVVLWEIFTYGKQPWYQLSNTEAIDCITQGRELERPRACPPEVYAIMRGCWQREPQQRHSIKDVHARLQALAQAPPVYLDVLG
T4 sequence (P07949 29-1114): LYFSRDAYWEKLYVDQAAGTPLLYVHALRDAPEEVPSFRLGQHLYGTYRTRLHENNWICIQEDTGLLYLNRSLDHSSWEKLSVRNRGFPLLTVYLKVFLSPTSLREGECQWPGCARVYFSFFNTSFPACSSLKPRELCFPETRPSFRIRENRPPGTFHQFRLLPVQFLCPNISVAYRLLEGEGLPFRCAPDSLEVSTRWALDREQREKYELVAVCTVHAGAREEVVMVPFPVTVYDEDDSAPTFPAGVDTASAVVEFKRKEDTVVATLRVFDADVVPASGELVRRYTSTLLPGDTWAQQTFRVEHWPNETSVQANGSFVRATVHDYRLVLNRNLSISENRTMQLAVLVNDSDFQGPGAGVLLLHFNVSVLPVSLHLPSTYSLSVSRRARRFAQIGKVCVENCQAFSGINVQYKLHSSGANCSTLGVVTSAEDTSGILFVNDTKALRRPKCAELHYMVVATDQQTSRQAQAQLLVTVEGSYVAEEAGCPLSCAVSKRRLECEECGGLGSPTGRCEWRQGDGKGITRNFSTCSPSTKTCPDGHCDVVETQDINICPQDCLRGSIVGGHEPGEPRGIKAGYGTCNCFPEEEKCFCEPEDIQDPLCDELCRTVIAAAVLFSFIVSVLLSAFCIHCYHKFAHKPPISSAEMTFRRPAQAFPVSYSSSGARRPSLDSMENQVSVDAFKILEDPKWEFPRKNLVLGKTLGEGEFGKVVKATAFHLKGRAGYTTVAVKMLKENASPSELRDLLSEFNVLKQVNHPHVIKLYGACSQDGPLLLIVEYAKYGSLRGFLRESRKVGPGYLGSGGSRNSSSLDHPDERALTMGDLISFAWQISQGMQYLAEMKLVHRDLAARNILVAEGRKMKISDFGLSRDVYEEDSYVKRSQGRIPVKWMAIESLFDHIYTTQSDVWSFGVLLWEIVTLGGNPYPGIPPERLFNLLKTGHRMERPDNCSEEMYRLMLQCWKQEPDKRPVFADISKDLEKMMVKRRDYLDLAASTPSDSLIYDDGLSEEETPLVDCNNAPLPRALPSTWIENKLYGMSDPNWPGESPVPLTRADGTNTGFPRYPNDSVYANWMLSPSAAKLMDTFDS
T1 sequence (Q16620 32-822): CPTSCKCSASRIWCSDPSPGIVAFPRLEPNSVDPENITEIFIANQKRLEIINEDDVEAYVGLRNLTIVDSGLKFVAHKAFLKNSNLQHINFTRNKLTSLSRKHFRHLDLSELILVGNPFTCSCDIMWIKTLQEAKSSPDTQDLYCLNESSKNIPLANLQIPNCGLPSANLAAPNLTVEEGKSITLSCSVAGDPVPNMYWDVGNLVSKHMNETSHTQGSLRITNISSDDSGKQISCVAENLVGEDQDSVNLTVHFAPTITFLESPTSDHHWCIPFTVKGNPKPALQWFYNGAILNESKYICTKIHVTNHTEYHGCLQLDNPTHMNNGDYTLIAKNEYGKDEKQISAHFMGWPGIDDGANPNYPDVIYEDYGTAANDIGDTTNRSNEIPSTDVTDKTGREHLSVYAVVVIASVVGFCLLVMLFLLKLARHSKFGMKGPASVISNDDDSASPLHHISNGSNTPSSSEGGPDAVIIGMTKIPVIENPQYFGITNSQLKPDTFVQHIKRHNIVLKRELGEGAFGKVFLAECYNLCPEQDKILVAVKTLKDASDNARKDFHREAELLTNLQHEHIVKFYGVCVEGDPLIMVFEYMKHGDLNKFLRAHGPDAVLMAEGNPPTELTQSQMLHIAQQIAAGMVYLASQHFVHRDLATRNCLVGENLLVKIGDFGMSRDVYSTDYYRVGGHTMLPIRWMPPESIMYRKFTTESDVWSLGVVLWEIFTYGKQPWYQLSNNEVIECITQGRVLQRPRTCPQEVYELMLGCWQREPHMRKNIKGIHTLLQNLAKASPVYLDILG
Chain of ALK (Q9UM73 19-1620, species assumed): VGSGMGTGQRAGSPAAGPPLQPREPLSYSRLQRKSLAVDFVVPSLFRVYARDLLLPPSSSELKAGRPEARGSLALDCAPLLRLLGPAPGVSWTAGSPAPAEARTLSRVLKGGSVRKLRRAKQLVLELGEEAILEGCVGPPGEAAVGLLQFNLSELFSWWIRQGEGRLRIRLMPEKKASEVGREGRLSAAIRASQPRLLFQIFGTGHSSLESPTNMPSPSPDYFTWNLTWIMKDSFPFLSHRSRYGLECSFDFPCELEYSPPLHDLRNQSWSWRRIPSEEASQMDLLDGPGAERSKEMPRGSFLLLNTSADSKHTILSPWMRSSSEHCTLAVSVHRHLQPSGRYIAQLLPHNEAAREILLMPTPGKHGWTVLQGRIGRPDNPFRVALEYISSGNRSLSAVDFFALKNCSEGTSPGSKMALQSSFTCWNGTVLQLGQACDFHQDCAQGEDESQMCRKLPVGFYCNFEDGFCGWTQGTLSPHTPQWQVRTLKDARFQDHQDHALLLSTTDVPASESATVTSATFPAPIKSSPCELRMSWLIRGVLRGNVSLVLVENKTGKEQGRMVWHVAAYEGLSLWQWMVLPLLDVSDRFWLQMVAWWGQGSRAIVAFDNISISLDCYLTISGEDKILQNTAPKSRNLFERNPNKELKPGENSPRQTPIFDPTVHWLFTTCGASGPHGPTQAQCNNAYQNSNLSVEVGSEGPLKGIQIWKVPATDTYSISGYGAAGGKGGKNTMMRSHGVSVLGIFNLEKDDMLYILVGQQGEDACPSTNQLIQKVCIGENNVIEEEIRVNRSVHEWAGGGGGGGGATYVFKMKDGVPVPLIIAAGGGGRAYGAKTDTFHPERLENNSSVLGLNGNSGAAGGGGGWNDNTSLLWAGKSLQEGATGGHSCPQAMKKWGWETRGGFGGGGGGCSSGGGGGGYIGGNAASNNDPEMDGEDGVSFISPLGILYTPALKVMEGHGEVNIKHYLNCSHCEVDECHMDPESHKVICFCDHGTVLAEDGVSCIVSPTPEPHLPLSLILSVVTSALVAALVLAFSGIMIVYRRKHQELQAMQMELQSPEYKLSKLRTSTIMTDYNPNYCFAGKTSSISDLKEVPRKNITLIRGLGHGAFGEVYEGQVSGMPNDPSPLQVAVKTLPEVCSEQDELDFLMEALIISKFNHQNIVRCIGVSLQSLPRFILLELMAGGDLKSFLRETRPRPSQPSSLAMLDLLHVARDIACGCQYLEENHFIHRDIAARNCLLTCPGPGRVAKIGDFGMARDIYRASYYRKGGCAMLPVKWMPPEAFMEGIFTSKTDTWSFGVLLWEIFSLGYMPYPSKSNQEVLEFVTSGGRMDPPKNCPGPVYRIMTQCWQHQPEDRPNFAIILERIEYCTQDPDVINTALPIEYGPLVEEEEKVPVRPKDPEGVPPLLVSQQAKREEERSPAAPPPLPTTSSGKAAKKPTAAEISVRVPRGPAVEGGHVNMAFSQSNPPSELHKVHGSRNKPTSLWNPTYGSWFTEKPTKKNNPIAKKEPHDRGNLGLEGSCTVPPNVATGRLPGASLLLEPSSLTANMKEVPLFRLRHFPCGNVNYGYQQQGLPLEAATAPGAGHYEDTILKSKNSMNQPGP
T2 sequence (P11309 whole entry): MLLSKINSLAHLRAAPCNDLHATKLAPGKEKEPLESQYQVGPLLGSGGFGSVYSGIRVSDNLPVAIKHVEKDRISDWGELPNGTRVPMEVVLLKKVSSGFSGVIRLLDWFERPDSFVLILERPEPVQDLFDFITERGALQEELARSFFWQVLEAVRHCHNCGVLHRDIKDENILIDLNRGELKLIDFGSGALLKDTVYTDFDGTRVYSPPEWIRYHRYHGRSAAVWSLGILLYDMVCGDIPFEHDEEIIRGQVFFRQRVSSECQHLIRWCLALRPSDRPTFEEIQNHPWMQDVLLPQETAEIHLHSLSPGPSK

SMILES	IC50 [1] [nM]	IC50 [2] [nM]	IC50 [3] [nM]	IC50 [4] [nM]	IC50 [5] [nM]
CCNc1nccc(-c2ccc3[nH]c(=O)c4[nH]cc(C(=O)OCC)c4c3c2)n1 [Compound 264, 8-(2-Ethylamino-pyrimidin-4-yl)-4-oxo-4,5-dihydro-3H-pyrrolo[2,3-c]quinoline-1-ethyl carboxylate]	10000 to 100000	1000 to 10000	10000 to 100000	100 to 1000	–
CCOC(=O)c1c[nH]c2c(=O)[nH]c3ccc(S(=O)(=O)N(C)c4ccccc4)cc3c12 [Compound 3, 8-(Methyl-phenylsulfamoyl)-4-oxo-4,5-dihydro-3H-pyrrolo[2,3-c]quinoline-1-ethyl carboxylate]	10000 to 100000	10000 to 100000	1000 to 10000	< 100	–
CCOC(=O)c1c[nH]c2c(=O)[nH]c3ccc(S(=O)(=O)NC4CN5CCC4CC5)cc3c12 (stereo not shown) [Compound 94, 8-(1-Azabicyclo[2.2.2]oct-3-ylsulfamoyl)-4-oxo-4,5-dihydro-3H-pyrrolo[2,3-c]quinoline-1-ethyl carboxylate]	–	–	–	100 to 1000	100 to 1000
CCCOC(=O)c1c[nH]c2c(=O)[nH]c3ccc(S(=O)(=O)N(C[C@@H]4CCCN4C)C4CC4)cc3c12 [Compound 145, (S)-8-[Cyclopropyl-(1-methyl-pyrrolidin-2-ylmethyl)sulfamoyl]-4-oxo-4,5-dihydro-3H-pyrrolo[2,3-c]quinoline-1-propyl carboxylate]	–	–	–	100 to 1000	1000 to 10000
CCCOC(=O)c1c[nH]c2c(=O)[nH]c3ccc(S(=O)(=O)N(CC(C)(C)NC)C4CC4)cc3c12 [Compound 141, 8-[Cyclopropyl-(2-methyl-2-methylamino-propyl)-sulfamoyl]-4-oxo-4,5-dihydro-3H-pyrrolo[2,3-c]quinoline-1-propyl carboxylate hydrochloride]	–	–	–	100 to 1000	100 to 1000
CCOC(=O)c1c[nH]c2c(=O)[nH]c3ccc(C(=O)N(C[C@@H]4CCCN4)C4CC4)cc3c12 [Compound 219, (S)-8-(cyclopropyl-pyrrolidin-2-ylmethyl-carbamoyl), 3-oxo-4,5-dihydro-3H-pyrrolo[2,3-c]quinoline-1-ethyl carboxylate hydrochloride]	–	–	–	1000 to 10000	1000 to 10000
CCOC(=O)c1c[nH]c2c(=O)[nH]c3ccc(NS(=O)(=O)c4ccccc4)cc3c12 [Compound 37, 8-Benzenesulfonylamino-4-oxo-4,5-dihydro-3H-pyrrolo[2,3-c]quinoline-1-ethyl carboxylate]	1000 to 10000	10000 to 100000	1000 to 10000	100 to 1000	–
C#CCN(C[C@@H]1CCCN1)S(=O)(=O)c1ccc2[nH]c(=O)c3[nH]cc(C(=O)OCCC)c3c2c1 [Compound 150, (S)-4-Oxo-8-(prop-2-ynyl-pyrrolidin-2-ylmethyl-sulfamoyl)-4,5-dihydro-3H-pyrrolo[2,3-c]quinoline-1-propyl carboxylate hydrochloride]	–	–	–	< 100	100 to 1000
CCOC(=O)c1c[nH]c2c(=O)[nH]c3ccc(-c4cccc(CO)c4)cc3c12 [Compound 240, 8-(3-Hydroxymethyl-phenyl)-4-oxo-4,5-dihydro-3H-pyrrolo[2,3-c]quinoline-1-ethyl carboxylate]	1000 to 10000	1000 to 10000	1000 to 10000	100 to 1000	–
O=C(OCC1CCCCC1)c1c[nH]c2c(=O)[nH]c3ccc(S(=O)(=O)NC4CCNCC4)cc3c12 [Compound 117]	10000 to 100000	1000 to 10000	10000 to 100000	100 to 1000	–
CCCOC(=O)c1c[nH]c2c(=O)[nH]c3ccc(S(=O)(=O)N(C)CC(N)=O)cc3c12 [Compound 177, 8-(Carbamoylmethyl-methyl-sulfamoyl)-4-oxo-4,5-dihydro-3H-pyrrolo[2,3-c]quinoline-1-propyl carboxylate]	–	–	–	100 to 1000	100 to 1000
CCOC(=O)c1c[nH]c2c(=O)[nH]c3ccc(-c4cccc(CN(C)C)c4)cc3c12 [Compound 242, 8-(3-Dimethylaminomethyl-phenyl)-4-oxo-4,5-dihydro-3H-pyrrolo[2,3-c]quinoline-1-ethyl carboxylate]	10000 to 100000	1000 to 10000	10000 to 100000	100 to 1000	–
CCOC(=O)c1c[nH]c2c(=O)[nH]c3ccc(-c4cccc(O)c4)cc3c12 [Compound 237, 8-(3-Hydroxy-phenyl)-4-oxo-4,5-dihydro-3H-pyrrolo[2,3-c]quinoline-1-ethyl carboxylate]	100 to 1000	1000 to 10000	1000 to 10000	100 to 1000	–
CCOC(=O)c1c[nH]c2c(=O)[nH]c3ccc(S(=O)(=O)N(CCC#N)C4CC4)cc3c12 [Compound 127, 8-[(2-Cyano-ethyl)-cyclopropyl-sulfamoyl]-4-oxo-4,5-dihydro-3H-pyrrolo[2,3-c]quinoline-1-ethyl carboxylate]	1000 to 10000	10000 to 100000	1000 to 10000	< 100	–
CCCOC(=O)c1c[nH]c2c(=O)[nH]c3ccc(S(=O)(=O)NC4CCNCC4)cc3c12 [Compound 114, 4-Oxo-8-(piperidin-4-ylsulfamoyl)-4,5-dihydro-3H-pyrrolo[2,3-c]quinoline-1-propyl carboxylate]	10000 to 100000	1000 to 10000	10000 to 100000	< 100	–
CCOC(=O)c1c[nH]c2c(=O)[nH]c3ccc(-c4cc[nH]n4)cc3c12 [Compound 282, 4-Oxo-8-(1H-pyrazol-3-yl)-4,5-dihydro-3H-pyrrolo[2,3-c]quinoline-1-ethyl carboxylate]	10000 to 100000	10000 to 100000	10000 to 100000	100 to 1000	–
CCCCOC(=O)c1c[nH]c2c(=O)[nH]c3ccc(S(=O)(=O)NC4CCNCC4)cc3c12 [Compound 115, 4-Oxo-8-(piperidin-4-ylsulfamoyl)-4,5-dihydro-3H-pyrrolo[2,3-c]quinoline-1-carboxylate of butyl]	10000 to 100000	1000 to 10000	10000 to 100000	< 100	–
CCOC(=O)c1c[nH]c2c(=O)[nH]c3ccc(S(=O)(=O)O)cc3c12 [Compound 227, 4-Oxo-8-sulfo-4,5-dihydro-3H-pyrrolo[2,3-c]quinoline-1-ethyl carboxylate]	1000 to 10000	1000 to 10000	1000 to 10000	1000 to 10000	–
CCCOC(=O)c1c[nH]c2c(=O)[nH]c3ccc(S(=O)(=O)N(C)C4CCNCC4)cc3c12 [Compound 120, 8-(Methyl-piperidin-4-yl-sulfamoyl)-4-oxo-4,5-dihydro-3H-pyrrolo[2,3-c]quinoline-1-propyl carboxylate]	10000 to 100000	10000 to 100000	1000 to 10000	< 100	–
CCOC(=O)c1c[nH]c2c(=O)[nH]c3ccc(-c4cccc(N)c4)cc3c12 [Compound 234, Trifluoroacetate of 8-(3-aminophenyl)-4-oxo-4,5-dihydro-3H-pyrrolo[2,3-c]quinoline-1-ethyl carboxylate]	1000 to 10000	–	1000 to 10000	100 to 1000	–
CCOC(=O)c1c[nH]c2c(=O)[nH]c3ccc(NS(=O)(=O)c4cccc(F)c4)cc3c12 [Compound 44, 8-(3-Fluoro-benzenesulfonylamino)-4-oxo-4,5-dihydro-3H-pyrrolo[2,3-c]quinoline-1-ethyl carboxylate]	1000 to 10000	–	1000 to 10000	100 to 1000	–

Reference: patent US8426437B2, “Pyrroloquinoline derivatives and their use as protein kinases inhibitors” (Pierre Fabre Medicament, priority 2005, dated 2013)
